From patent US20250197428A1, “INHIBITORS OF KIF18A AND USES THEREOF” (ACCENT THERAPEUTICS, INC., priority 2022, published 2025)
pIC50: −log10 of the molar value. Where two headings read alike, the source gives them in different places.

Tests used:
[1] = target: KIF18A (Homo sapiens (Human), UniProt Q8NI77); test: KIF18A Biochemical Assay (ATPase, ADP-Glo)
[2] = test system: OVCAR-3 cells; test: In vitro anti-proliferative activity assay in cancer cell line OVCAR-3 (CellTiter-Glo, 4- or 7-day); format: cell-based; details: read-out: OVCAR-3 cellular antiproliferation assay IC50
[3] = Caco-2 permeation assay, bidirectional permeability; format: in vitro ADME; details: human, Caco-2, pH 7.4, 5 μM, Papp(B-A)/Papp(A-B)
Procedure: (§1) 1. Caco-2 Permeation Assay: Evaluation of the Bidirectional Permeabilities of Compounds.
(§2) Samples were analyzed through LC/MS/MS for estimating the apparent permeability coefficients (Papp) of compounds across Caco-2 cell monolayers. Caco-2 cells (American Type Culture Collection) were incubated and seeded onto HTS Transwell-96 Well Permeable Supports (Corning Corporation) for 14 days using a cell medium consisting of Dulbecco's Modified Eagle's Medium (DMEM) with high glucose and L-glutamine supplemented with 10% FBS, 1× penicillin-streptomycin mixture and 1×non-essential amino acids (NEAA). Cell monolayer integrity was measured using an automated tissue resistance measuring system (World Precision Instruments). Stock solutions of compounds and control compounds in DMSO were diluted with HBSS (10 mM HEPES, pH 7.4) to reach a final concentration of 5 μM with a final concentration of DMSO <0.1%. HBSS was then removed after 30 minutes of preincubation, and 75 μL of test compound was added to the apical compartment of the Transwell insert. The basolateral compartment was filled with 235 μL of HBSS (10 mM HEPES, pH 7.4) containing 2% BSA. Rate of drug transport in the basolateral to apical direction was obtained by adding 235 μL of test compound to the receiver plate wells (basolateral compartment) and filling with 75 μL of HBSS (10 mM HEPES, pH 7.4) containing 2% BSA. Time 0 samples were prepared by transferring 25 μL of 5 μM working solution to wells of the 96-deepwell plate containing 25 μL HBSS (10 mM HEPES and 2% BSA, pH 7.4), followed by the addition 200 μL of cold methanol containing appropriate internal standards (100 nM alprazolam, 200 nM labetalol, 200 nM caffeine and 200 nM diclofenac). After incubating at 37° C. for 2 h, 25 μL samples from donor sides (apical compartment) were transferred to a 96-well plate containing 25 μL HBSS (10 mM HEPES and 2% BSA, pH 7.4). 25 μL samples from receiver sides (basolateral compartment) were removed and transferred to a new plate containing 25 μL HBSS (10 mM HEPES, pH 7.4). 200 μL of cold methanol containing internal standards (100 nM alprazolam, 200 nM labetalol, 200 nM caffeine and 200 nM diclofenac) was added to terminate the reaction. Samples were vortexed for 5 minutes and then centrifuged at 3,220 g for 40 minutes. An aliquot of 100 μL of the supernatant is mixed with 100 μL of ultra-pure water for LC-MS/MS analysis. All incubations are performed in duplicate. Solutions were discarded from the transwell plate. 100 μL Lucifer Yellow solution (100 μM in HBSS) was added to each well of transwell insert and 300 μL of HBSS to each well of receiver. After incubating at 37° C. for 30 minutes, 80 μL was aliquotted from each well of apical and basolateral sides to a solid black plate. The plate was then read with Tecan Infinite™ M 200 (Excitation/Emission wavelength […]).
(§3) All calculations were carried out using Microsoft Excel. Peak areas were determined from extracted ion chromatograms. The leakage of Lucifer Yellow, in unit of percentage (%), can be calculated using the following equation: […]
(§4) LY leakage of <1% is acceptable to indicate the well-qualified Caco-2 monolayers. The apparent permeability coefficient (Papp), in units of centimeter per second, can be calculated for Caco-2 drug transport assays using the following equation: […]
(§5) Where VA is the volume (in mL) in the receiver well (0.235 mL for Ap→Bl flux and 0.075 mL for Bl→Ap flux), Area is the surface area of the membrane (0.143 cm^2 for HTS Transwell-96 Well Permeable Supports), and time is the total transport time in seconds. The efflux ratio can be determined using the following equation: […]
(§6) Where Papp (B-A) indicates the apparent permeability coefficient in basolateral to apical direction, and Papp (A-B) indicates the apparent permeability coefficient in apical to basolateral direction.
(§7) The recovery can be determined using the following equation: […]

[4] = In vivo pharmacokinetic evaluation in mouse; parameters: species or system female balb/c nude mice; details: for IV Clearance / Vd: 3 mg/kg IV; for Vd / Cmax / half-life: female, balb/c nude, plasma; for Vd: read-out: IV Vss; for Cmax / half-life: 10 mg/kg PO; for half-life: read-out: PO T1/2 (converted)
[5] = test system: OVCAR-3 xenografts; test: 28 day in vivo efficacy in OVCAR-3 xenografts; parameters: species or system female NOD SCID mice; details: oral
Procedure: Experiments were performed in female NOD SCID mice (GenPharmatech Co.). Animals were allowed to acclimate for 7 days before the study. The general health of the animals were evaluated by a veterinarian, and complete health checks were performed prior to the study. General procedures for animal care and housing were in accordance with the standard, Commission on Life Sciences, National Research Council, Standard Operating Procedures (SOPs) of Pharmaron, Inc. The mice were kept in laminar flow rooms at constant temperature and humidity with 3-5 mice in each cage. Animals were housed in polycarbonate cages which had dimensions of 300×180×150 mm^3 and in an environmentally monitored, well-ventilated room maintained at a temperature of 23±3° C. and a relative humidity of 40%-70%. Fluorescent lighting provided illumination approximately 12 hours per day. Animals had free access to irradiation sterilized dry granule food during the entire study period except for time periods specified by the protocol, as well as sterile drinking water in a bottle that was available ad libitum during the quarantine and study periods.
The OVCAR-3 (ATCC) tumor cell lines were maintained in vitro as a monolayer in RPMI 1640 medium supplemented with 20% heat inactivated FBS, at 37° C. in an atmosphere of 5% CO2 in air. The tumor cells were sub-cultured, not exceeding 4-5 passages, and cells growing in an exponential growth phase were harvested and counted for tumor inoculation. Each mouse was inoculated subcutaneously on the right flank with OVCAR-3 tumor cells (2×10^7) in 0.2 mL of RPMI-1640 with Matrigel (1:1) for model development.
Treatment was started when the mean tumor size reached approximately 150-200 mm^3, at which time the mice were randomized into treatment groups such that the average starting tumor size is similar for each treatment group. Animals were then treated with vehicle or indicated mg/kg (10-100) of compound at a given frequency (e.g., BID, QD, 4 days on treatment followed by 3 days off treatment) by oral gavage at a final dosing volume of 10 mL/kg.
The measurement of tumor size was conducted with a caliper and recorded twice per […] week. The tumor volume (TV) (mm^3) was estimated using the formula: TV=a×b^2/2, where “a” and “b” are long and short diameters of a tumor, respectively.
The TVs were used for calculation of the tumor growth inhibition and tumor growth delay. For the tumor growth inhibition (TGI), the value using the formula: […]
The “TVfinal” and “TVinitial” are the mean tumor volumes on the final day and initial day, respectively.
All statistical tests was conducted on GraphPad, and the level of significance was set at 5% or P<0.05. The group means and standard deviations were calculated for all measurement parameters. Two-way RM ANOVA followed by Tukeys post hoc comparisons of the means was applied among groups.
Additionally, after compound treatment, the animals were observed an additional 28 days without compound treatment.
The initial treatment period with Example 1 was 28 days, after which overall efficacy and tolerability were evaluated based on tumor volume and body weight changes observed during the treatment period (FIG. 2a and FIG. 2b).
The initial treatment period with Example 1 was 28 days, after which overall efficacy and tolerability were evaluated based on tumor volume and body weight changes observed during the treatment period (FIG. 3a and FIG. 3b).

[6] = Tolerability (body weight) in 28 day OVCAR-3 xenograft study; format: in vivo; details: all concentrations dosed, 28 day treatment
[7] = test system: human megakaryocyte (CFU-MK) progenitors from human bone marrow mononuclear cells; test: Human megakaryocyte progenitor colony formation assay (CFU-MK); format: cell-based; details: 336 h, read-out: Free-fraction adjusted CFU-MK IC50
[8] = test system: Caco-2 cell monolayers; test: Caco-2 permeation assay, bidirectional permeability; format: in vitro ADME; details: 5 μM, 2 h, Papp(B-A)/Papp(A-B)
Procedure: as §1, §2, §3, §4, §5, §6, §7

[9] = Homo sapiens, OVCAR-3, 96 h, 4-day assay
[10] = 14 days culture, adjusted for binding to assay buffer
[11] = day 28, 100 mg/kg once daily for 4 days followed by 3 days of no dosing

Chain of KIF18A (Q8NI77 1-367): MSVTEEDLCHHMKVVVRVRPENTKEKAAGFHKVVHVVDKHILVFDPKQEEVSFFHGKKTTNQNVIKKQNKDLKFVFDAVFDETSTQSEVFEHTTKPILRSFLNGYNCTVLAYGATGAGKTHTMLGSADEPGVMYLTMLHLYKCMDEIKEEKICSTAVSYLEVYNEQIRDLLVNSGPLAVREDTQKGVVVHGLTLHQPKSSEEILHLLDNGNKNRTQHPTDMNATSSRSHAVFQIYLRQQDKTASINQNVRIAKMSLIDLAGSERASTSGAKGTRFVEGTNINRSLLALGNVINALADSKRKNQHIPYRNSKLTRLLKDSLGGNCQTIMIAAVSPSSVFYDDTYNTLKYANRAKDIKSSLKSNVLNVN
Chain of KIF18A (P02550 whole entry partner): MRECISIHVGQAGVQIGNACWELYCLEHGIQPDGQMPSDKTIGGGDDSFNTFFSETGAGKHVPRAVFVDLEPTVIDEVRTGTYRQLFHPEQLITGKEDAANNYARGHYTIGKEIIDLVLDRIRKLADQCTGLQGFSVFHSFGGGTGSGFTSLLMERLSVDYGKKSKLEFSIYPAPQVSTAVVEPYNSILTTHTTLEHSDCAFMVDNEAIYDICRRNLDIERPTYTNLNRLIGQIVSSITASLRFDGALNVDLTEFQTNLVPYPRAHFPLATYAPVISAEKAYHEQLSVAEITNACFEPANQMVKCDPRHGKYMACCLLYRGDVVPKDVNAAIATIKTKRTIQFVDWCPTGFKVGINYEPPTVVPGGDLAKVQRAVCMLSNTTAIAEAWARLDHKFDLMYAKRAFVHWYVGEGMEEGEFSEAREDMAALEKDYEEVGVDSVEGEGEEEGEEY
Chain of KIF18A (P02554 whole entry partner): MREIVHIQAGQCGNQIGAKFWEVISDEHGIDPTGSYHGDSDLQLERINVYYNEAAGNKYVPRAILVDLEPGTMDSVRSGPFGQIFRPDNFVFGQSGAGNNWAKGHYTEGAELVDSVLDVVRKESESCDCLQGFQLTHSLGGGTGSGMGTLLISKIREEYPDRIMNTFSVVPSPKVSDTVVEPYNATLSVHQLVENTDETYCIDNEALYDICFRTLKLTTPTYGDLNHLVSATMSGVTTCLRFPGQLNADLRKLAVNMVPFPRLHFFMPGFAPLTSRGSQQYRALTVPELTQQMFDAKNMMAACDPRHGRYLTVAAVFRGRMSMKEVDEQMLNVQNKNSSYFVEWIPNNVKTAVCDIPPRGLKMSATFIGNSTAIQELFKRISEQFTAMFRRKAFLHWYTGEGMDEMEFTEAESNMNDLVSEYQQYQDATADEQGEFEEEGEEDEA

Compound	pIC50 [1]	pIC50 [2, 9]	efflux ratio at 2 h, 5 μM [3]	IV Clearance [4] [mL/ming/kg]	Vd [4] [L/kg]	Cmax [4] [ng/mL]	half-life [4] [h]	Tolerability based on body weight [6]	pIC50 [7, 10]	other results
Cc1cc(NC(=O)c2ccc(NS(=O)(=O)CCO)cc2N2CC[Si](C)(C)CC2)nc(N2CCC(F)(F)CC2)n1 [Example 9, N-[2-(4,4-difluoropiperidin-1-yl)-6-methylpyrimidin-4-yl]-2-(4,4-dimethyl-1,4-azasilinan-1-yl)-4-(2-hydroxyethanesulfonamido)benzamide]	6.30 to 7.00	> 7.00	< 10	1.7	2.5	3100	14.5	well tolerated	–	% T/C ([5]; day 28, 100 mg/kg once daily): −4%; % TGI ([5]; day 28, 100 mg/kg once daily): 104%
Cc1cc(NC(=O)c2ccc(NS(=O)(=O)CCO)cc2N2CC[Si](C)(C)CC2)nc(C2CCC(F)(F)CC2)n1 [Example 1, N-(2-(4,4-difluorocyclohexyl)-6-methylpyrimidin-4-yl)-2-(4,4-dimethyl-1,4-azasilinan-1-yl)-4-((2-hydroxyethyl)sulfonamido)benzamide]	> 7.00	> 7.00	< 10	3.6	2.7	2900	8.9	well tolerated	7.77	% T/C [5, 11]: −2%; % TGI [5, 11]: 102%
Cc1cc(NC(=O)c2ccc(NS(=O)(=O)CCO)cc2N2CC[C@]3(C(F)F)C[C@@H]3C2)nc(N2CCC(F)(F)CC2)n1 [Example 86]	> 7.00	–	–	–	–	–	–	–	–	pIC50 ([2]; 7-day assay): 6.30 to 7.00; Caco-2 assay efflux ratio [8]: ** (“**” means efflux ratio of <10)
Cc1cc(NC(=O)c2ccc(NS(=O)(=O)CCO)cc2N2CC[C@@]3(C)C[C@H]3C2)nc(N2CCC(F)(F)CC2)n1 [Example 36]	> 7.00	6.30 to 7.00	–	–	–	–	–	–	7.09	–
Cc1cc(NC(=O)c2cc(F)c(NS(=O)(=O)CCO)cc2N2CC[Si](C)(C)CC2)nc(N2CCC(F)(F)CC2)c1 [Example 107]	> 7.00	–	< 10	–	–	–	–	–	7.33	pIC50 ([2]; Homo sapiens, OVCAR-3, 168 h, 7-day assay): > 7.00
C[Si]1(C)CCN(c2cc(NS(=O)(=O)CCO)c(F)cc2C(=O)Nc2cccc(N3CCC(F)(F)CC3)n2)CC1 [Example 14]	> 7.00	> 7.00	–	–	–	–	–	–	–	pIC50 [7]: 7.21
